The values that follow come from patent US10722501B2 (BAYER AKTIENGESELLSCHAFT, priority 2016, dated 2020).

The structures appear in SMILES notation.

For the assay, the target named is T1, recombinant full-length human prolyl endopeptidase (PREP) (Homo sapiens, UniProt P48147).
T1 construct: To recombinant full-length human prolyl endopeptidase (PREP, R&D-Systems, 4308-SE); purchased R&D-Systems 4308-SE
T1 sequence (P48147 1-710): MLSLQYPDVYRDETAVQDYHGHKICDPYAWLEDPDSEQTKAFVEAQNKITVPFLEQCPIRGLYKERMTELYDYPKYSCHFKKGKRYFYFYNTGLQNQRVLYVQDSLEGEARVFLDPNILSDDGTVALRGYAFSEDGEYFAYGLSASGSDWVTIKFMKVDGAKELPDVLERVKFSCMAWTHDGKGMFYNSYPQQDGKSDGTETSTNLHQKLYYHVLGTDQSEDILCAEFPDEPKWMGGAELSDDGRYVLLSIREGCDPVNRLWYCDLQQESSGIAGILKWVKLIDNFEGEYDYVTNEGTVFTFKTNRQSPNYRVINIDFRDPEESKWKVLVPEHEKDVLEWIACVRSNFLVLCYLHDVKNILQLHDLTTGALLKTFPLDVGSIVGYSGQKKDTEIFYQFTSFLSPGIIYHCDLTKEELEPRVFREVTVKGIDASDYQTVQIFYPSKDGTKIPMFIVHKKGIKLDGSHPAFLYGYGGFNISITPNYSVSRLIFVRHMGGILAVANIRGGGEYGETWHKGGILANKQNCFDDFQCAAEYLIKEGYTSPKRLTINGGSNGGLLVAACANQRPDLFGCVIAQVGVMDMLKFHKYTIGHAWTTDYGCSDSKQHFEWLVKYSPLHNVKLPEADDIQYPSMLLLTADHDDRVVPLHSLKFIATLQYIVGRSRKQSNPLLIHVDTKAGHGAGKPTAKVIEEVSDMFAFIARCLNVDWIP
Put plainly: Biochemical human prolyl endopeptidase (PREP) assay with fluorescently labelled substrate. The settings on record: substrate Z-Gly-Pro-AMC 50 μM, 32° C., 60 min; some as mean values from multiple independent determinations. The essentials:
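Initial rates of fluorescence increase from 50 μM Z-Gly-Pro-AMC cleavage (ex 360/em 465 nm, 60 min, 32° C) give percent PREP activity versus no-compound control, and IC50 is interpolated. Enzyme used at 0.4 nM (final, example) in Tris pH 7.5 with EDTA, GSH, BSA and Brij-35; compounds span 1 nM to 30 μM.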
With `O=C([C@@H]1CCCc2nn(Cc3cc4cccnc4nc3C(F)(F)F)c(=O)n21)N1CC[C@H](F)C1` [Example 419, (5S)-5-{[(3S)-3-Fluoropyrrolidin-1-yl]carbonyl}-2-{[2-(trifluoromethyl)-1,8-naphthyridin-3-yl]methyl}-5,6,7,8-tetrahydro[1,2,4]triazolo[4,3-a]pyridin-3(2H)-one], the IC50 was determined as 0.88 nM.
For `Cc1ccc(Cn2nc3n(c2=O)C(C(=O)N2CC(=O)C2)CCC3)cc1` (racemic) [Example 133, (5RS)-2-(4-Methylbenzyl)-5-[(3-oxoazetidin-1-yl)carbonyl]-5,6,7,8-tetrahydro[1,2,4]triazolo[4,3-a]pyridin-3(2H)-one] the value was 145 nM; for `O=C([C@@H]1CCCc2nn(Cc3ccnc(C(F)(F)F)c3F)c(=O)n21)N1CC(F)C1` [Example 483, (5S)-5-[(3-Fluoroazetidin-1-yl)carbonyl]-2-{[3-fluoro-2-(trifluoromethyl)pyridin-4-yl]methyl}-5,6,7,8-tetrahydro[1,2,4]triazolo[4,3-a]pyridin-3(2H)-one], 2.1 nM; for `O=C([C@@H]1CCCc2nn(Cc3ccc(F)cc3)c(=O)n21)N1C[C@@H](F)[C@@H](F)C1` [Example 452, (5S)-5-{[(3R,4S)-3,4-Difluoropyrrolidin-1-yl]carbonyl}-2-(4-fluorobenzyl)-5,6,7,8-tetrahydro[1,2,4]triazolo[4,3-a]pyridin-3(2H)-one], 1.3 nM.
As for `CC1CCC(C(=O)N2C[C@@H](F)[C@@H](F)C2)n2c1nn(Cc1ccc(F)c(Cl)c1)c2=O` (mixture of isomers) [Example 319, (5RS,8RS)-2-(3-Chloro-4-fluorobenzyl)-5-{[(3R,4S)-3,4-difluoropyrrolidin-1-yl]carbonyl}-8-methyl-5,6,7,8-tetrahydro[1,2,4]triazolo[4,3-a]pyridin-3(2H)-one], the IC50 was 0.63 nM.
For `CC1CCC(C(=O)N2CC[C@H](F)C2)n2c1nn(Cc1ccc(C(F)(F)F)nc1)c2=O` (single isomer, unassigned) [Example 221] the value was 980 nM; for `O=C(C1C(C(F)(F)F)CCc2nn(Cc3ncc(Cl)cc3F)c(=O)n21)N1CC(F)C1` (single isomer, unassigned) [Example 309, (5RS,6RS)-2-[(5-Chloro-3-fluoropyridin-2-yl)methyl]-5-[(3-fluoroazetidin-1-yl)carbonyl]-6-(trifluoromethyl)-5,6,7,8-tetrahydro[1,2,4]triazolo[4,3-a]pyridin-3(2H)-one], 64 nM; for `O=C(C1CCCc2nn(Cc3ccc(C(F)(F)F)nc3)c(=O)n21)N1CCCC1` (single isomer, unassigned) [Example 85, (5RS)-5-(Pyrrolidin-1-ylcarbonyl)-2-{[6-(trifluoromethyl)pyridin-3-yl]methyl}-5,6,7,8-tetrahydro[1,2,4]triazolo[4,3-a]pyridin-3(2H)-one], 2.1 nM.
As for `CNC(=O)c1ccc(Cn2nc3n(c2=O)C(C(=O)N2CCCC2)CCC3)cc1` (racemic) [Example 155, N-Methyl-4-{[(5RS)-3-oxo-5-(pyrrolidin-1-ylcarbonyl)-5,6,7,8-tetrahydro[1,2,4]triazolo[4,3-a]pyridin-2(3H)-yl]methyl}benzamide], the IC50 was found to be 210 nM.
For `O=C([C@@H]1CCCc2nn(CC3(c4ccc(F)cc4F)CC3)c(=O)n21)N1CCC(F)(F)C1` [Example 359, (5S)-2-{[1-(2,4-Difluorophenyl)cyclopropyl]methyl}-5-[(3,3-difluoropyrrolidin-1-yl)carbonyl]-5,6,7,8-tetrahydro[1,2,4]triazolo[4,3-a]pyridin-3(2H)-one] the value was 1.1 nM; for `Cn1ncc2cc(Cn3nc4n(c3=O)C(C(=O)N3CCCC3)CCC4)ccc21` (racemic) [Example 64, (5RS)-2-[(1-Methyl-1H-indazol-5-yl)methyl]-5-(pyrrolidin-1-ylcarbonyl)-5,6,7,8-tetrahydro[1,2,4]triazolo[4,3-a]pyridin-3(2H)-one], 0.94 nM; for `O=C([C@@H]1CCc2nn(Cc3ccc(F)c(Cl)c3)c(=O)n21)N1CCCC1` [Example 51, (5S)-2-(3-Chloro-4-fluorobenzyl)-5-(pyrrolidin-1-ylcarbonyl)-2,5,6,7-tetrahydro-3H-pyrrolo[2,1-c][1,2,4]triazol-3-one], 0.89 nM.
For `O=C([C@@H]1CCCc2nn(Cc3ncc(F)cc3F)c(=O)n21)N1CC[C@H](F)C1` [Example 581, (5S)-2-[(3,5-Difluoropyridin-2-yl)methyl]-5-{[(3S)-3-fluoropyrrolidin-1-yl]carbonyl}-5,6,7,8-tetrahydro[1,2,4]triazolo[4,3-a]pyridin-3(2H)-one] the value was 0.3 nM; for `O=C([C@@H]1CCCc2nn(CC3CCC(C(F)(F)F)CC3)c(=O)n21)N1CCCC1` (single isomer, unassigned) [Example 186], 1.25 nM.
For `O=C(C1CCCc2nn(Cc3ccc(Cl)cc3)c(=O)n21)N1CCCC1` (racemic) [Example 27, (5RS)-2-(4-Chlorobenzyl)-5-(pyrrolidin-1-ylcarbonyl)-5,6,7,8-tetrahydro[1,2,4]triazolo[4,3-a]pyridin-3(2H)-one] the value was 1.28 nM.
With `O=C(C1CC(C(F)(F)F)Cc2nn(Cc3ccnc(C(F)(F)F)c3F)c(=O)n21)N1CC[C@H](F)C1` (mixture of isomers) [Example 256, (5RS,7RS)-5-{[(3S)-3-Fluoropyrrolidin-1-yl]carbonyl}-2-{[3-fluoro-2-(trifluoromethyl)pyridin-4-yl]methyl}-7-(trifluoromethyl)-5,6,7,8-tetrahydro[1,2,4]triazolo[4,3-a]pyridin-3(2H)-one], the IC50 was 1.7 nM.
For `O=C([C@@H]1CCCc2nn(Cc3cnc(C(F)(F)F)c(Cl)c3)c(=O)n21)N1CCC(F)(F)C1` [Example 441, (5S)-2-{[5-Chloro-6-(trifluoromethyl)pyridin-3-yl]methyl}-5-[(3,3-difluoropyrrolidin-1-yl)carbonyl]-5,6,7,8-tetrahydro[1,2,4]triazolo[4,3-a]pyridin-3(2H)-one] the value was 2 nM; for `O=C([C@@H]1CCCc2nn(Cc3nnc(C(F)(F)F)o3)c(=O)n21)N1C[C@@H](F)[C@@H](F)C1` [Example 543, (5S)-5-{[(3R,4S)-3,4-Difluoropyrrolidin-1-yl]carbonyl}-2-{[5-(trifluoromethyl)-1,3,4-oxadiazol-2-yl]methyl}-5,6,7,8-tetrahydro[1,2,4]triazolo[4,3-a]pyridin-3(2H)-one], 33.5 nM; for `O=C(C1C(C(F)(F)F)CCc2nn(Cc3ncc(Cl)cc3F)c(=O)n21)N1CC[C@H](F)C1` (single isomer, unassigned) [Example 295], 12 nM.
On to `O=C([C@@H]1CCCc2nn(Cc3cc(C(F)(F)F)nc4ccccc34)c(=O)n21)N1CC[C@H](F)C1` [Example 539, (5S)-5-{[(3S)-3-Fluoropyrrolidin-1-yl]carbonyl}-2-{[2-(trifluoromethyl)quinolin-4-yl]methyl}-5,6,7,8-tetrahydro[1,2,4]triazolo[4,3-a]pyridin-3(2H)-one], for which the IC50 amounted to 0.85 nM.
Regarding `O=C([C@@H]1CCCc2nn(CC3CCC(C(F)(F)F)CC3)c(=O)n21)N1CCCC1` (single isomer, unassigned) [Example 185], the IC50 came to 0.37 nM.
